In assay [1] the test system is Middle East respiratory syndrome-related coronavirus. The class given is functional, organism-based. The following applies: Calu-3.
For assay [2] the test system is unchanged. It is filed as functional, organism-based, Vero E6. The following applies: Vero C1008.
Assay [3] has as its system SARS-CoV-2. Put plainly: Antiviral activity against SARS-CoV-2 Beta assessed as reduction of viral growth. It is filed as functional, organism-based. The following applies: Severe acute respiratory syndrome coronavirus 2, Beta.
The test system of assay [4] is SARS-CoV-2. Briefly: Antiviral activity against SARS-CoV-2 Gamma assessed as reduction of viral growth. It is filed as functional, organism-based. To be noted: Severe acute respiratory syndrome coronavirus 2, Gamma.
Assay [5] relates to SARS-CoV-2. Briefly: Antiviral activity against SARS-CoV-2 Delta assessed as reduction of viral growth. It is filed as functional, organism-based. To be noted: Severe acute respiratory syndrome coronavirus 2, Delta.
In assay [6] the test system is SARS-CoV-2. Put plainly: Antiviral activity against SARS-CoV-2 Omicron assessed as reduction of viral growth. The class given is functional, organism-based. The following applies: Severe acute respiratory syndrome coronavirus 2, Omicron.
Assay [7] has as its target Procathepsin L (Homo sapiens, UniProt P07711). Briefly: Inhibition of recombinant cathepsin L (unknown origin).
The target in assay [8] is Transmembrane protease serine 2 (Homo sapiens) (UniProt O15393). Briefly: Binding affinity to TMPRSS2 (unknown origin) assessed as inhibition constant by fluorescence-based assay.
Chain of Transmembrane protease serine 2 (Homo sapiens) (O15393 1-255 limits assumed): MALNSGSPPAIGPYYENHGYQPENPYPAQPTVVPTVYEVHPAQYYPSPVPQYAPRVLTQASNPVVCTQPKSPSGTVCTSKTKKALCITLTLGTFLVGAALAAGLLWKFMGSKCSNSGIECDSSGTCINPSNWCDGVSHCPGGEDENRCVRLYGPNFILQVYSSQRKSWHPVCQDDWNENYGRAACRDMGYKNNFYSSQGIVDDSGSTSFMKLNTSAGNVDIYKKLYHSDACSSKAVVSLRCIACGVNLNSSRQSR
Chain of Transmembrane protease serine 2 (Homo sapiens) (O15393 256-492 limits assumed): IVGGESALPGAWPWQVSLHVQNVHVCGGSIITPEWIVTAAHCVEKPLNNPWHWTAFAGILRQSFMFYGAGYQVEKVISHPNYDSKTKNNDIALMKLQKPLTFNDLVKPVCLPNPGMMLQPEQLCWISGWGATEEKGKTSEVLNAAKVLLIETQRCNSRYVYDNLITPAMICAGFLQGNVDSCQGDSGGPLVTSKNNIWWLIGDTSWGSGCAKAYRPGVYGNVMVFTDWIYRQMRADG
For assay [9], the system named is SARS-CoV. The class given is functional, organism-based, Vero E6. To be noted: Severe acute respiratory syndrome-related coronavirus, Vero C1008.
Assay [10] deals with Human coronavirus 229E. Briefly: microbe, parasite or virus in culture. The following applies: MRC5.
The test system of assay [11] is SARS-CoV-2. It is filed as functional, organism-based. The following applies: Severe acute respiratory syndrome coronavirus 2, HPAEpiC.
Assay [12] deals with SARS-CoV-2. It is filed as functional, organism-based. The following applies: Severe acute respiratory syndrome coronavirus 2, Huh-7.
A short description of assay [13]: Binding affinity to HCoV-NL63 MPro assessed as inhibition constant. Further details: species or system Human coronavirus NL63.
The test system of assay [14] is Middle East respiratory syndrome-related coronavirus. Briefly: Antiviral activity against MERS-CoV infected in human Huh-7 cells assessed as reduction of viral growth. It is filed as functional, organism-based.

Usually IC50 stands for the point on the concentration scale where inhibition reaches its midpoint. By EC50 is commonly meant the concentration giving half of the maximal effect. For orientation: Ki means a dissociation constant, usually derived from enzyme kinetics or from competition with a known ligand.

Square brackets hold non-standard residues; d marks the D form. Peptide text beside a SMILES is read from it. βAla = NCCC(=O)O Bounds are passed on as bounds.

Chain of Procathepsin L (P07711 whole entry): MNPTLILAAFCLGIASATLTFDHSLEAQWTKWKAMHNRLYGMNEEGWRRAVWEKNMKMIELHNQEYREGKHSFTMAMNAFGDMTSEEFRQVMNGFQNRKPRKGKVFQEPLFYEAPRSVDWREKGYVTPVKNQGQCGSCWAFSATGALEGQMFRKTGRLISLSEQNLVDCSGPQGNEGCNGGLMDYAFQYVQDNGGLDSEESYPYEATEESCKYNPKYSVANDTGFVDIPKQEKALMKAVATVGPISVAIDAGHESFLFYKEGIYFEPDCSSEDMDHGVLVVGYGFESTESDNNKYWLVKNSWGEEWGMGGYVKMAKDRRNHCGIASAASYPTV

As for `CC[C@H](C)[C@H](NC(=O)[C@H](Cc1ccc(O)cc1)NC(=O)[C@H](CO)NC(=O)[C@H](CCC(=O)O)NC(=O)[C@H](CC(N)=O)NC(=O)[C@H](CC(C)C)NC(=O)[C@H](C)NC(=O)[C@H](CCCCN)NC(=O)[C@@H](NC(=O)[C@@H](NC(=O)[C@H](CCC(N)=O)NC(=O)[C@H](CCC(N)=O)NC(=O)[C@H](CC(C)C)NC(=O)[C@H](CO)NC(=O)[C@H](CCCNC(=N)N)NC(=O)[C@H](CCSC)NC(=O)[C@H](CCC(=O)O)NC(=O)[C@H](Cc1ccc(O)cc1)NC(=O)[C@H](CCC(=O)O)NC(=O)[C@H](CC(C)C)NC(=O)[C@H](CC(=O)O)NC(=O)[C@H](CC(C)C)NC(=O)[C@H](CC(C)C)NC(=O)[C@@H](NC(=O)[C@@H](NC(=O)[C@H](CC(N)=O)NC(=O)[C@@H](NC(=O)[C@H](CCC(N)=O)NC(=O)[C@@H](NC(=O)[C@H](CC(C)C)NC(=O)[C@@H](N)CO)[C@@H](C)O)[C@@H](C)CC)[C@@H](C)O)[C@@H](C)O)C(C)C)C(C)C)C(=O)N[C@@H](CC(=O)O)C(=O)N[C@@H](CC(C)C)C(=O)N[C@@H](CCCCN)C(=O)N[C@@H](CCC(=O)O)C(=O)N[C@@H](CC(C)C)C(=O)O`, the half-inhibitory concentration (IC50) in assay [1] and in [2] was 550 nM throughout.

On to `COc1ccc(C(=O)Nc2cccc(C(F)(F)F)c2)cc1Nc1nc(-c2cccnc2)c2[nH]ccc2n1`, for which the 50% effective concentration (EC50) in [3] is 12.4 nM; in assay [4], below 6.9 nM; in assay [5], below 6.9 nM; in [6] it was below 6.9 nM.

With `CCOC(=O)[C@H]1OC1C(=O)N[C@@H](CC(C)C)C(=O)NCCC(C)C` (some centres not stated), the half-maximal inhibitory concentration (IC50) in assay [7] amounted to 180 nM.

Regarding `N=C(N)c1cccc(C[C@H](NS(=O)(=O)c2cccc(-c3ccc(Cl)cc3Cl)c2)C(=O)N2CCC(CCN)CC2)c1`, the K in [8] was 0.9 nM.

For `C[C@@H](OC(C)(C)C)[C@H](NC(=O)OCc1ccccc1)C(=O)N[C@@H](CC1CCCCC1)C(=O)N[C@H](C=O)C[C@@H]1CCNC1=O`, the IC50 was 600 nM in [9] and 140 nM in [10].

With `O=C[C@H](C[C@@H]1CCNC1=O)NC(=O)[C@@H]1[C@H]2CCC[C@H]2CN1C(=O)COc1ccc(Cl)cc1Cl` (single isomer, unassigned), the EC50 worked out at 1.1 nM in assay [11] and 31 nM in [12].

As for `Cc1cc(C(=O)N[C@@H](C)C(=O)N[C@H](C(=O)N[C@@H](CC(C)C)C(=O)N[C@H](/C=C/C(=O)OCc2ccccc2)C[C@@H]2CCNC2=O)C(C)C)no1`, the Ki in [13] is 11300 nM. Further, inhibition in assay [10] was half-maximal at 140 nM (IC50).

In the case of `CC(C)C[C@H](NC(=O)[C@H](CCC(=O)O)NC(=O)[C@H](CCC(=O)O)NC(=O)[C@H](CC(C)C)NC(=O)[C@H](CCCCN)NC(=O)[C@H](CCCCN)NC(=O)[C@H](CO)NC(=O)[C@H](CC(C)C)NC(=O)[C@H](CCC(=O)O)NC(=O)[C@H](CCC(=O)O)NC(=O)[C@H](CC(C)C)NC(=O)[C@H](CCCCN)NC(=O)[C@H](CCCCN)NC(=O)[C@H](CO)NC(=O)[C@H](CC(C)C)NC(=O)[C@H](CCC(=O)O)NC(=O)[C@H](CCC(=O)O)NC(=O)[C@H](CC(C)C)NC(=O)[C@H](CCCCN)NC(=O)[C@H](CCCCN)NC(=O)[C@H](CO)NC(=O)[C@H](CC(C)C)NC(=O)[C@H](CCC(=O)O)NC(=O)[C@H](CCC(=O)O)NC(=O)[C@H](CC(C)C)NC(=O)[C@H](CCCCN)NC(=O)[C@H](CCCCN)NC(=O)[C@H](CO)NC(=O)[C@H](CC(C)C)NC(=O)[C@H](CCC(=O)O)NC(=O)[C@H](CCC(=O)O)NC(=O)[C@@H](N)CC(C)C)C(=O)N[C@@H](CO)C(=O)N[C@@H](CCCCN)C(=O)N[C@@H](CCCCN)C(=O)NCCC(=O)N[C@@H](CCCCN)C(=O)O` (H-LEELSKKLEELSKKLEELSKKLEELSKKLEELSKK[βAla]K-OH), the EC50 in [14] was 240 nM.

On to `CC[C@H](C)[C@H](NC(=O)[C@H](Cc1ccc(O)cc1)NC(=O)[C@H](CO)NC(=O)[C@H](CCC(=O)O)NC(=O)[C@H](CCC(=O)O)NC(=O)[C@H](CC(C)C)NC(=O)[C@H](CCCCN)NC(=O)[C@H](CCCCN)NC(=O)[C@@H](NC(=O)[C@@H](NC(=O)[C@H](CCC(=O)O)NC(=O)[C@H](CCC(=O)O)NC(=O)[C@H](CC(C)C)NC(=O)[C@H](CCCCN)NC(=O)[C@H](CCCCN)NC(=O)[C@H](CCSC)NC(=O)[C@H](CCC(=O)O)NC(=O)[C@H](Cc1ccc(O)cc1)NC(=O)[C@H](CCC(=O)O)NC(=O)[C@H](CC(C)C)NC(=O)[C@H](CC(=O)O)NC(=O)[C@H](CC(C)C)NC(=O)[C@H](CC(C)C)NC(=O)[C@@H](NC(=O)[C@@H](NC(=O)[C@H](CC(N)=O)NC(=O)[C@@H](NC(=O)[C@H](CCC(N)=O)NC(=O)[C@@H](NC(=O)[C@H](CC(C)C)NC(=O)[C@@H](N)CO)[C@@H](C)O)[C@@H](C)CC)[C@@H](C)O)[C@@H](C)O)C(C)C)C(C)C)C(=O)N[C@@H](CC(=O)O)C(=O)N[C@@H](CC(C)C)C(=O)N[C@@H](CCCCN)C(=O)N[C@@H](CCC(=O)O)C(=O)N[C@@H](CC(C)C)C(=O)O`, for which the concentration for half-maximal inhibition (IC50) in assay [1] and in assay [2] was 550 nM each time.
